How the values were obtained:
[1] = test system: IL-10; test: Monocyte stimulation cultures of PBMC (LPS or unstimulated), IL-10 ELISA; conditions: for IL-10 Conc: no LPS printed for these rows
[2] = pH-value of the solution on dissolving in water; assay type: physicochemical; conditions: dissolved in water
Method: When strontium monomethyl fumarate is dissolved in water, the pH-value of the solution raises to alkaline values (pH˜9-10), owing to production of hydroxyl ions: Sr(C5H5O4)2+2H2O→Sr^2+(aq)+2C5H6O4(aq)+2OH^−(aq) (2)

[3] = test system: IL-8; test: Monocyte stimulation cultures of PBMC (LPS or unstimulated), IL-8 ELISA
[4] = test system: IL-2; test: T cell specific stimulation of PBMC (CD3/CD28 beads), IL-2 ELISA; assay type: cell-based, human; conditions: for IL-2 Conc: CD3/CD28 beads
Method: PBMC were isolated from blood of two healthy volunteers (person) via Ficoll density gradient centrifugation. The purified cells were used in parallel cultures for monocyte stimulations using Lipopolysaccharide (LPS) and T cell specific stimulations using bead-coupled antibodies directed against the T cell activation antigens CD3 and CD28.
Cultures were incubated in a tissue culture incubator at 37° C., 5% CO2 for 20 h, culture supernatants were harvested at the end of the culture period and used for cytokine quantitation. The measured cytokines in cell culture supernatants from either monocyte stimulation cultures (IL-8, IL-10, TNF-α) or T cell stimulation cultures (IL-2, IL-4) were quantitated with ELISAs (Becton Dickinson) according to the manufacturers instructions. The resulting optical density (OD) was measured on a Packard Fusion Reader and OD values were translated to cytokine concentrations (in pg/ml) with the use of the Fusion Reader Data Analysis Software.

di-strontium-tetrakis-(mono methyl fumarate)-tetra hydrate [strontium MMF]
effect on IL-10 secretion ([1]; as single stimulant (unstimulated monocytes)): induced | IL-10 Conc ([1]; 1 μM MMF, Donor 1): 775 pg/mL | IL-10 Conc ([1]; 1 μM MMF, Donor 2): 1125 pg/mL | IL-10 Conc ([1]; 3 μM MMF, Donor 1): 886 pg/mL | IL-10 Conc ([1]; 3 μM MMF, Donor 2): 1385 pg/mL | IL-10 Conc ([1]; 10 μM MMF, Donor 1): 1026 pg/mL | IL-10 Conc ([1]; 10 μM MMF, Donor 2): 2035 pg/mL | IL-10 Conc ([1]; 30 μM MMF, Donor 1): 351 pg/mL | IL-10 Conc ([1]; 30 μM MMF, Donor 2): 800 pg/mL | IL-10 Conc ([1]; 100 μM MMF, Donor 1): 7 pg/mL | IL-10 Conc ([1]; 100 μM MMF, Donor 2): 40 pg/mL | IL-10 Conc ([1]; 300 μM MMF, Donor 1): 0 pg/mL | IL-10 Conc ([1]; 300 μM MMF, Donor 2): 0 pg/mL | IL-10 Conc ([1]; 1 mM MMF, Donor 1): 0 pg/mL | IL-10 Conc ([1]; 1 mM MMF, Donor 2): 0 pg/mL | IL-10 Conc ([1]; 3 mM MMF, Donor 1): 0 pg/mL | IL-10 Conc ([1]; 3 mM MMF, Donor 2): 0 pg/mL | pH-value of the solution [2]: 9-10 | IL-8 Conc ([3]; LPS 1 ng/ml, 1 μM MMF, Donor 1): 35264 pg/mL | IL-8 Conc ([3]; LPS 1 ng/ml, 1 μM MMF, Donor 2): 25146 pg/mL | IL-8 Conc ([3]; LPS 1 ng/ml, 3 μM MMF, Donor 1): 26255 pg/mL | IL-8 Conc ([3]; LPS 1 ng/ml, 3 μM MMF, Donor 2): 24672 pg/mL | IL-8 Conc ([3]; LPS 1 ng/ml, 10 μM MMF, Donor 1): 1259306 pg/mL | IL-8 Conc ([3]; LPS 1 ng/ml, 10 μM MMF, Donor 2): 70691 pg/mL | IL-8 Conc ([3]; LPS 1 ng/ml, 30 μM MMF, Donor 1): 1369127 pg/mL | IL-8 Conc ([3]; LPS 1 ng/ml, 30 μM MMF, Donor 2): 1357587 pg/mL | IL-8 Conc ([3]; LPS 1 ng/ml, 100 μM MMF, Donor 1): 80524 pg/mL | IL-8 Conc ([3]; LPS 1 ng/ml, 100 μM MMF, Donor 2): 1285660 pg/mL | IL-8 Conc ([3]; LPS 1 ng/ml, 300 μM MMF, Donor 1): 7135 pg/mL | IL-8 Conc ([3]; LPS 1 ng/ml, 300 μM MMF, Donor 2): 31370 pg/mL | IL-8 Conc ([3]; LPS 1 ng/ml, 1 mM MMF, Donor 1): 558 pg/mL | IL-8 Conc ([3]; LPS 1 ng/ml, 1 mM MMF, Donor 2): 2825 pg/mL | IL-8 Conc ([3]; LPS 1 ng/ml, 3 mM MMF, Donor 1): 86 pg/mL | IL-8 Conc ([3]; LPS 1 ng/ml, 3 mM MMF, Donor 2): 424 pg/mL | effect on IL-8 secretion ([3]; LPS stimulated monocytes): did not induce a co-stimulation | IL-8 Conc ([3]; no LPS printed for these rows, 1 μM MMF, Donor 1): 138285 pg/mL | IL-8 Conc ([3]; no LPS printed for these rows, 1 μM MMF, Donor 2): 241352 pg/mL | IL-8 Conc ([3]; no LPS printed for these rows, 3 μM MMF, Donor 1): 219130 pg/mL | IL-8 Conc ([3]; no LPS printed for these rows, 3 μM MMF, Donor 2): 349450 pg/mL | IL-8 Conc ([3]; no LPS printed for these rows, 10 μM MMF, Donor 1): 249798 pg/mL | IL-8 Conc ([3]; no LPS printed for these rows, 10 μM MMF, Donor 2): 446267 pg/mL | IL-8 Conc ([3]; no LPS printed for these rows, 30 μM MMF, Donor 1): 179340 pg/mL | IL-8 Conc ([3]; no LPS printed for these rows, 30 μM MMF, Donor 2): 315447 pg/mL | IL-8 Conc ([3]; no LPS printed for these rows, 100 μM MMF, Donor 1): 60312 pg/mL | IL-8 Conc ([3]; no LPS printed for these rows, 100 μM MMF, Donor 2): 153980 pg/mL | IL-8 Conc ([3]; no LPS printed for these rows, 300 μM MMF, Donor 1): 12354 pg/mL | IL-8 Conc ([3]; no LPS printed for these rows, 300 μM MMF, Donor 2): 31040 pg/mL | IL-8 Conc ([3]; no LPS printed for these rows, 1 mM MMF, Donor 1): 1696 pg/mL | IL-8 Conc ([3]; no LPS printed for these rows, 1 mM MMF, Donor 2): 5363 pg/mL | IL-8 Conc ([3]; no LPS printed for these rows, 3 mM MMF, Donor 1): 176 pg/mL | IL-8 Conc ([3]; no LPS printed for these rows, 3 mM MMF, Donor 2): 577 pg/mL | effect on IL-8 secretion ([3]; unstimulated monocytes): did induce an induction | IL-2 Conc ([4]; 1 μM MMF, Donor 1): 5787 pg/mL | IL-2 Conc ([4]; 1 μM MMF, Donor 2): 2559 pg/mL | IL-2 Conc ([4]; 3 μM MMF, Donor 1): 4699 pg/mL | IL-2 Conc ([4]; 3 μM MMF, Donor 2): 1754 pg/mL | IL-2 Conc ([4]; 10 μM MMF, Donor 1): 5901 pg/mL | IL-2 Conc ([4]; 10 μM MMF, Donor 2): 1905 pg/mL | IL-2 Conc ([4]; 30 μM MMF, Donor 1): 4592 pg/mL | IL-2 Conc ([4]; 30 μM MMF, Donor 2): 2079 pg/mL | IL-2 Conc ([4]; 100 μM MMF, Donor 1): 170 pg/mL | IL-2 Conc ([4]; 100 μM MMF, Donor 2): 65 pg/mL | IL-2 Conc ([4]; 300 μM MMF, Donor 1): 2 pg/mL | IL-2 Conc ([4]; 300 μM MMF, Donor 2): 0 pg/mL | IL-2 Conc ([4]; 1 mM MMF, Donor 1): 0 pg/mL | IL-2 Conc ([4]; 1 mM MMF, Donor 2): 1 pg/mL | IL-2 Conc ([4]; 3 mM MMF, Donor 1): 1 pg/mL | IL-2 Conc ([4]; 3 mM MMF, Donor 2): 3 pg/mL | effect on IL-2 secretion ([4]; after T-cell stimulation): co-induction

Source: patent US20080004344A1, “Novel Salts of Fumaric Acid Monoalkylesters and Their Pharmaceutical Use” (ADITECH PHARMA AB, priority 2004, published 2008)
